# Experimental data from PubChem BioAssay (NCI).
#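 Exposure lasted 48 hours, with cells grown in 96-well plates and compounds tested at five concentrations. Definition used: TGI = concentration required for complete inhibition of growth.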
# Tests used:
# Test in all cases: DTP human tumour cell line panel, 48 h
# [1] = tested on: DU-145 prostate
# [2] = tested on: EKVX NSCLC
# [3] = tested on: MDA-MB-435
# [4] = tested on: SW-620 colon
# [5] = tested on: A498 renal
# [6] = tested on: OVCAR-4 ovarian
# [7] = tested on: TK-10 renal
# [8] = tested on: M14 melanoma
# [9] = tested on: MOLT-4 leukemia
# [10] = tested on: HOP-62 NSCLC
SMILES,TGI [1],TGI [2],TGI [3],TGI [4],TGI [5],TGI [6],TGI [7],TGI [8],TGI [9],TGI [10]
S=C1NC2=C(COC/C2=C\c2ccccc2Cl)C(c2ccccc2Cl)N1 (configuration not stated),> 100 µM,> 100 µM,> 100 µM,> 100 µM,> 100 µM,> 100 µM,> 100 µM,> 100 µM,44.5 µM,> 100 µM
CCOC(=O)c1[nH]n(-c2ccccc2)c(=O)c1C=NC(=S)C(N)=S,> 100 µM,97.7 µM,> 100 µM,> 100 µM,> 100 µM,> 100 µM,> 100 µM,73.3 µM,> 100 µM,> 100 µM
COc1cc(OC)c(NC2=NCCO2)cc1Cl,> 100 µM,> 100 µM,38.4 µM,> 100 µM,81.5 µM,> 100 µM,> 100 µM,97.8 µM,> 100 µM,> 100 µM
Cc1ccc(N2C(=O)C(O)=C(C(=O)C(C)(C)C)C2c2ccc([N+](=O)[O-])cc2)cc1 (configuration not stated),> 100 µM,67.1 µM,44.7 µM,–,68.9 µM,22.3 µM,90.8 µM,46.2 µM,31.5 µM,49.2 µM
COc1ccc(-c2cc(-c3ccc(Nc4ccnc5cc(C(F)(F)F)ccc45)cc3)[nH]c(=O)c2C#N)cc1,> 100 µM,> 100 µM,> 100 µM,> 100 µM,> 55.1 µM,> 100 µM,> 68.2 µM,> 100 µM,> 100 µM,> 41.1 µM
Nc1nc(SCc2ccccc2[N+](=O)[O-])c2[nH]cnc2n1,> 100 µM,> 100 µM,> 100 µM,> 100 µM,48.3 µM,> 100 µM,> 62.7 µM,> 100 µM,> 100 µM,> 100 µM
CCN(CC)CCNC(=O)c1cc2cc(NC(=O)c3cc4cc(NC(=O)c5cc6cc([N+](=O)[O-])ccc6[nH]5)ccc4[nH]3)ccc2[nH]1,> 100 µM,> 100 µM,> 100 µM,> 100 µM,> 100 µM,> 100 µM,> 100 µM,> 100 µM,> 100 µM,> 100 µM
CC(Nc1cc(=O)n(C)c(=O)[nH]1)c1ccccc1 (configuration not stated),> 100 µM,> 100 µM,> 100 µM,> 100 µM,> 100 µM,> 100 µM,> 100 µM,> 100 µM,> 100 µM,> 100 µM
O=S(=O)(Nc1nc(-c2cc(O)c(O)c(O)c2)cs1)c1ccc(Cl)cc1Cl,53.8 µM,33.5 µM,56.9 µM,37.5 µM,> 100 µM,47.9 µM,36.2 µM,50.6 µM,52.7 µM,35.1 µM
Cc1ccc(-c2nc3n(c2/C=N\N=C(N)N)CCS3)cc1,26.8 µM,30.9 µM,28.9 µM,30.8 µM,30.5 µM,30.3 µM,33.1 µM,–,> 100 µM,28.6 µM
CC(C(O)c1ccccc1)[N+](=O)[O-] (configuration not stated),35.5 µM,> 100 µM,38.2 µM,> 100 µM,36.3 µM,52.6 µM,72 µM,72 µM,4.88 µM,> 100 µM
CNC(=O)C(NC(=O)[C@H](CC(C)C)NC(=O)[C@@H](S)CCN1C(=O)N(C)C(C)(C)C1=O)C(C)(C)C (some centres not stated),> 100 µM,> 100 µM,> 100 µM,> 100 µM,> 100 µM,> 100 µM,> 100 µM,> 100 µM,> 100 µM,> 100 µM
CC1=NN(c2cccc(Cl)c2)C2(C1)SCC(=O)N2c1nc2ccccc2s1 (configuration not stated),> 100 µM,> 100 µM,79.7 µM,> 100 µM,89.8 µM,> 100 µM,74.1 µM,86.5 µM,38.9 µM,58.3 µM
O=C(OCc1c(-c2ccccc2)nn(-c2ccccc2)c1COC(=O)Oc1ccccc1)Oc1ccccc1,> 100 µM,> 100 µM,> 100 µM,> 100 µM,> 100 µM,> 100 µM,> 100 µM,> 100 µM,> 100 µM,> 100 µM
CC1(C)C(C(=O)OC(C#N)c2cccc(OCC(=O)OCc3ccccc3)c2)C1(C)C (configuration not stated),> 100 µM,> 100 µM,> 100 µM,> 100 µM,> 100 µM,> 100 µM,> 100 µM,> 100 µM,62.7 µM,> 100 µM
O=C(O)C1(CC(CCCN2CCCCC2)c2ccccc2)CCCC1 (configuration not stated),> 100 µM,> 100 µM,> 100 µM,> 100 µM,> 100 µM,> 100 µM,> 100 µM,> 100 µM,> 100 µM,> 100 µM
O=C(Nc1ccc(Cl)cc1)c1cc(S(=O)(=O)NC2=NC(c3ccccc3)c3cc(Cl)ccc3N2)c(SSc2cc(Cl)c(C(=O)Nc3ccc(Cl)cc3)cc2S(=O)(=O)NC2=NC(c3ccccc3)c3cc(Cl)ccc3N2)cc1Cl (configuration not stated),> 100 µM,> 100 µM,> 100 µM,> 100 µM,> 100 µM,> 100 µM,> 100 µM,> 100 µM,> 61.6 µM,> 100 µM
CN(C)Cc1cc(C(=O)/C=C/c2c(F)cccc2Cl)cc(CN(C)C)c1O,21.3 µM,28.7 µM,38.2 µM,31.3 µM,21 µM,31 µM,15.7 µM,30 µM,66.1 µM,26.7 µM
CN1CCN(CCCCNc2cc3c4ccccc4c(NCCCCN4CCN(C)CC4)cc3c3ccccc23)CC1,3.14 µM,18.7 µM,0.359 µM,–,28.5 µM,2.87 µM,18.4 µM,2.16 µM,1.88 µM,7.72 µM
